In one series the target is T1, CYP 2C19 (Homo sapiens, UniProt P33261).
T1 construct: human liver microsomes (2.25 μl); tissue RILD Research Institute for Live Diseases (Shanghai, China) Co.Ltd; host or cells: human liver microsomes, 10-donor pooled
In words: CYP enzyme pathway, human liver microsomes with (+/-)-N-3-benzylnirvanol (system III-human). Conditions: CYP2C19; of six metabolites measured in system III-human. Format: in vitro ADME. Here is the method:
(§1) Five single inhibitor working solutions were separately added. Their concentrations were as follows: α-naphthoflavone (0.04 mM) for CYP 1A2, sulfaphenazole (0.8 mM) for CYP 2C9, (+/-)-N-3-benzylnirvanol (0.8 mM) for CYP 2C19, quinidine (0.08 mM) for CYP 2D6, and ketoconazole (0.04 mM) for CYP 3A4/5. All protein concentrations were 0.15 mg ml^-1 in the incubation system, except 0.3 mg ml^-1 for the sulfaphenazole working solution. Then, NADPH (10 mM, 30 μl) was added and the mixed solution incubated for 45 min. Finally, cold acetonitrile (600 μl, containing 100 ng ml^-1 flufenamic acid) was added to every tube, mixed by vortexing, centrifuged for 30 min at 14,000 g and 4°C, and the supernatants transferred into centrifuge tubes and injected into the UHPLC/MS/MS system as described above. Incubations were run in triplicate experiments.
(§2) To analyze compounds in incubation system III-human, a Luna C18 column (Phenomenex Inc., Torrance, CA, USA; 2.0 mm × 50 mm, 5 μm) was used at 40°C. The mobile phase consisted of 0.1% formic acid (v/v) in water (A) and 0.1% formic acid in acetonitrile (B). […] The injection volume was 10 μl with flow rate of 0.2 ml min^-1. The compounds were detected by multiple reaction monitoring in the negative ion electrospray mode.
A general note: Liver microsomes are vesicles of endoplasmic reticulum, rich in cytochrome P450 enzymes.

For another series, the system named is CYP 3A4/5. The experiment in a line: CYP enzyme pathway, human liver microsomes with ketoconazole (system III-human). The series is classed as in vitro ADME. Conditions: CYP3A4/5; of six metabolites measured in system III-human. Here is the method: as §1, §2
Another series concerns the target T2, CYP 2D6 (Homo sapiens, UniProt P10635).
T2 construct: human liver microsomes (2.25 μl); tissue RILD Research Institute for Live Diseases (Shanghai, China) Co.Ltd; host or cells: human liver microsomes, 10-donor pooled
The experiment in a line: CYP enzyme pathway, human liver microsomes with quinidine (system III-human). The series is classed as in vitro ADME. Conditions: CYP2D6; of six metabolites measured in system III-human. As to the method:
as §1, §2

Another series addresses T3, CYP 2C9 (Homo sapiens, UniProt P11712).
T3 construct: human liver microsomes (2.25 μl); tissue RILD Research Institute for Live Diseases (Shanghai, China) Co.Ltd; host or cells: human liver microsomes, 10-donor pooled
In words: CYP enzyme pathway, human liver microsomes with sulfaphenazole (system III-human). Conditions: CYP2C9, major metabolic enzyme; of six metabolites measured in system III-human. The series is classed as in vitro ADME. Here is the method:
as §1, §2

Details of series [1]: method as in Liu M. et al., 2011; Li et al., 2014. Conditions: Sprague-Dawley rats, 1,250 mg kg^-1 day^-1 for 184 days; ref Liu M. et al., 2011; Li et al., 2014; cited from earlier work.
Series [2] can be described thus: Metabolites in human liver microsomes (systems I-human, II-human). The series is classed as in vitro ADME. Here is the method: Then, NADPH-B (10 μl) was added and the mixed solution incubated for 2 h. […] Next, UDPGA (50 μl) was added and the mixed solution incubated for 2 h. In addition, the naringenin solution (1 mM, 10 μl) was evaluated in human systems I and II as above.
(§3) The incubated solution (500 μl) of systems I-rat, II-rat, III-rat, I-human, and II-human were extracted with ethyl acetate (500 μl) for at least 3 min by vortexing and centrifuged for 10 min at 13,000 rpm and 4°C. The extraction process described above was performed twice and all supernatants were transferred into centrifuge tubes, dried with N2, and dissolved with methanol-water (1:1, v/v). All samples were injected into a UPLC/Q-TOF-MS system consisting of a Waters Acquity ultra performance liquid chromatography (UPLC) coupled with a Micromass micro™ quadrupole time-of-flight mass spectrometry (Q-TOF-MS) system (Waters Corp., Milford, MA, USA), equipped with an electrospray ionization source, and controlled by the MassLynx (v. 4.1) software. Separation was performed on a Waters Acquity UPLC BEH C18 column (50 mm × 2.1 mm, 1.7 μm) at 40°C. The mobile phase consisted of 0.1% formic acid (v/v) in water (A) and methanol (B) using a linear gradient of 95% to 60% A (0–25 min), 60% to 40% A (25–35 min), 40% to 10% A (35–40 min), 10% A (40–43 min), 10% to 95% A (43–44 min), and 95% A (44–45 min). The injection volume was 5 μl with flow rate of 0.2 ml min^-1. The Q-TOF-MS worked in a full scan mode (100–1,200 m/z), selection ion mode, and product ion mode, in negative ion mode, respectively. The conditions were as follows: capillary voltage 3,000 V, sample cone voltage 30 V, extraction cone voltage 2.0 V, source temperature 100°C, desolvation temperature 350°C, cone gas (N2) flow rate of 40 L/h, desolvation gas (N2) flow rate of 700 L/h, low collision energy 6.0 eV, and high collision energy 20–80 eV. Compounds were detected with accurate mass using leucine enkephalin for mass correction at 554.2615 (m/z) in negative ionization mode.

Series [3] in a line: Stability of naringin and naringenin in human feces with active enzymes. The series is classed as in vitro ADME. Conditions: human feces in normal saline, 37°C for 12 h (over night). As to the method:
Next, 9-fold normal saline, instead of ninefold methanol-normal saline (2:1, v/v), was added to maintain enzyme activity in the feces. […] These samples were maintained at 37°C for 12 h.

The nature of series [4]: Metabolites in rat liver microsomes (systems I-rat, II-rat). The series is classed as in vitro ADME, Sprague-Dawley rat. As to the method:
(§4) Then, NADPH-B (10 μl) was added and incubated for 2 h. […] Then, UDPGA (50 μl) was added and incubated for 2 h. […] Then, UDPGA (50 μl) was added and incubated for 2 h. In addition, the naringenin solution (1 mM, 10 μl) was evaluated in rat systems I, II, and III as above.
as §3

Series [5] in a line: Metabolites in rat kidney microsomes (system III-rat). Format: in vitro ADME, Sprague-Dawley rat. As to the method:
as §4
The incubated solution (500 μl) of systems I-rat, II-rat, III-rat, I-human, and II-human were extracted with ethyl acetate (500 μl) for at least 3 min by vortexing and centrifuged for 10 min at 13,000 rpm and 4°C. The extraction process described above was performed twice and all supernatants were transferred into centrifuge tubes, dried with N2, and dissolved with methanol-water (1:1, v/v). All samples were injected into a UPLC/Q-TOF-MS system consisting of a Waters Acquity ultra performance liquid chromatography (UPLC) coupled with a Micromass micro™ quadrupole time-of-flight mass spectrometry (Q-TOF-MS) system (Waters Corp., Milford, MA, USA), equipped with an electrospray ionization source, and controlled by the MassLynx (v. 4.1) software. Separation was performed on a Waters Acquity UPLC BEH C18 column (50 mm × 2.1 mm, 1.7 μm) at 40°C. […] Compounds were detected with accurate mass using leucine enkephalin for mass correction at 554.2615 (m/z) in negative ionization mode.

SMILES strings stand for the structures.

T1 sequence (P33261 whole entry): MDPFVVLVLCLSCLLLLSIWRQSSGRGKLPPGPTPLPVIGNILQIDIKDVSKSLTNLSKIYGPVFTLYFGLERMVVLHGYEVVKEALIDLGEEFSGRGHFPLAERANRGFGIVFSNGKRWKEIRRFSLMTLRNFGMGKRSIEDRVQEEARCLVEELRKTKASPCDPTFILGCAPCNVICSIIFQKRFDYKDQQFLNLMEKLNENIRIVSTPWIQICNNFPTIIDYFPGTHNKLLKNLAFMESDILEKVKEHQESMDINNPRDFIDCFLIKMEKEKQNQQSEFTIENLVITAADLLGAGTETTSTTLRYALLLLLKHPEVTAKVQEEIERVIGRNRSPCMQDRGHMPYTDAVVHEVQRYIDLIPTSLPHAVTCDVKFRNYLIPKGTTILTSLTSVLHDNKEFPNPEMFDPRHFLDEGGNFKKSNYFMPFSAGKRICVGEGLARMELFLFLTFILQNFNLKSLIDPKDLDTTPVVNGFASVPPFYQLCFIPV
T3 sequence (P11712 whole entry): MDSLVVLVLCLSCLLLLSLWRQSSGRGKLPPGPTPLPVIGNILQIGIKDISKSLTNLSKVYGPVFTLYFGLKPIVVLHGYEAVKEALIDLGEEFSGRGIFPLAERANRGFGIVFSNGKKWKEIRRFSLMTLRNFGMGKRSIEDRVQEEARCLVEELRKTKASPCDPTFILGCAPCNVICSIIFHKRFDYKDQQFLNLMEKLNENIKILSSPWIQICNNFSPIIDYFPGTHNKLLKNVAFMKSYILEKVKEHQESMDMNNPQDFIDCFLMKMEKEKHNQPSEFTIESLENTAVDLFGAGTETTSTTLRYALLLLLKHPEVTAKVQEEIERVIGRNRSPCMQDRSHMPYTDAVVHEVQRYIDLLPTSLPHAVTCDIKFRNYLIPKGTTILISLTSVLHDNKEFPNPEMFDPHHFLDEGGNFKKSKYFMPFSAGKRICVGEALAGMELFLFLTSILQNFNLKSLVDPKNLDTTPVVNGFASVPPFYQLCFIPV
T2 sequence (P10635 whole entry): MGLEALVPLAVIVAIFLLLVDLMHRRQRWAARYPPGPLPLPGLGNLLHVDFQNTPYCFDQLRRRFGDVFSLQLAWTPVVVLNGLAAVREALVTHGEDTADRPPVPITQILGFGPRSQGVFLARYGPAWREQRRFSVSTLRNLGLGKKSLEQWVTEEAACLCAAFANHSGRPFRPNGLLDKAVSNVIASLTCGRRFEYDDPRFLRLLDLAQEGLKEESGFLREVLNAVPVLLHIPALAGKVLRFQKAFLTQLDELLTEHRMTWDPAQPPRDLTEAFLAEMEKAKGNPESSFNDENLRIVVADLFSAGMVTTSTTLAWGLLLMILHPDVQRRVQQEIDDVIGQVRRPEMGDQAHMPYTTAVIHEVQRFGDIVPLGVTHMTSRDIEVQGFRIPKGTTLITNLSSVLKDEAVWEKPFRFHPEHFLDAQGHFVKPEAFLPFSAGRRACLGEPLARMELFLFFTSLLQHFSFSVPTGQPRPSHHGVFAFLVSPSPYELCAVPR

On to `C[C@@H]1O[C@@H](O[C@H]2[C@H](Oc3cc(O)c4c(c3)O[C@H](c3ccc(O)cc3)CC4=O)O[C@H](CO)[C@@H](O)[C@@H]2O)[C@H](O)[C@H](O)[C@H]1O` [naringin, Naringin], for which the “metabolites the enzyme contributes to” value was “four metabolites” on CYP 2C19, “two metabolites” in the series on CYP 3A4/5 and “three metabolites” on CYP 2D6. At CYP 2C9, the “metabolites the enzyme is responsible for” value is reported as “six metabolites”. In addition, in series [1], the “adverse effects in toxicity study” value is listed as “no adverse effects”.

For `O=C1C[C@@H](c2ccc(O)cc2)Oc2cc(O)cc(O)c21` [naringenin, Naringenin], the “found in human liver microsomes, incubation of naringenin (S)” value in series [2] is “+”. Also, the “amount detected in feces relative to the amount added” value in [3] is reported as “less than 20%”. Besides, the “found in rat liver microsomes, incubation of naringenin (S)” value in [4] is “+”. The “found in rat kidney microsomes, incubation of G/S” value in series [5] is on record as “+”.
